Measurements reported in publication PMC3236741 (PLoS ONE, 2011).
“Also recorded” adds a separate entry of the source. Marks after values point to notes of the source that are not given here. Peptide text beside a SMILES is read from it.

Assays:
[1] = ^125I-Ang-(1-12) metabolism by plasma membranes from human atrial appendage, HPLC with inline γ-detector; settings: human atrial plasma membrane 50 µg, 1 nmol/L substrate, 15 min pre-incubation, 60 min at 37°C, HPLC γ-detection, mean ± SEM, n = 9
Description: Membranes were prepared at 4°C in a manner similar to the approaches previously described by our laboratory [52] and by Urata et al. [26] Frozen atrial tissue (50–100 mg) was homogenized at 4°C in 1 mL PBS (pH 7.4) in a Qiagen TissueLyzer (Valencia, CA). The homogenate was centrifuged at low spin (200 g) for 5 min at 4°C to remove the connective tissues and cell debris. The supernatant was transferred into a new tube and centrifuged at 28,000 g for 20 min at 4°C to collect the plasma membrane. The pellet was resuspended in PBS and centrifuged as described above. Finally, the pellet was resuspended in PBS and stored at −80°C till its use for metabolism studies. The concentration of each cardiac membrane preparation is expressed in terms of protein concentration measured by Bradford Reagent using bovine serum albumin (BSA) as the standard; the results were normalized in terms of per mg protein.
For ^125I-Ang-(1-12) metabolism studies, plasma membranes (50 µg per reaction mixture) were preincubated for 15 min under various combinations of RAS and peptidases inhibitors (50 µM each). After preincubation of plasma membranes with the inhibitors, human ^125I-Ang-(1-12) (1 nmol/L; specific activity 3,900 cpm/fmol) was added to the reaction medium and incubated for an additional 60 min at 37°C. At the end of the incubation time, the reaction was stopped by adding equal volume of 1% phosphoric acid, mixed well, and centrifuged at 28,000 g for 20 min to remove the plasma membrane. […] On the day of HPLC analysis, the samples were filtered before separation by reverse-phase high-performance liquid chromatography. We used a linear gradient from 10% to 50% mobile phase B at a flow rate of 0.35 mL/min at ambient temperature. The solvent system consisted of 0.1% phosphoric acid (mobile phase A) and 80% acetonitriles/0.1% phosphoric acid (mobile phase B). The eluted ^125I products were monitored by an in-line flow-through gamma detector (BioScan Inc., Washington, DC). Products were identified by comparison of retention time of synthetic [^125I] standard peptides and the data were analyzed with Shimadzu LCSolution (Kyoto, Japan) acquisition software.

chymase = target: T1, chymase (Homo sapiens, UniProt P23946); assay: Hydrolysis of colorimetric substrate N-suc-AAPF-pNA by human plasma membrane with or without chymostatin; type: biochemical; settings: chymostatin 50 µM; 1 mM N-suc-AAPF-pNA; 50 mM Tris pH 8.0, 1.5 M NaCl, 1% DMSO; 37°C, 0–180 min; absorbance 410 nm; six human atrial tissues
T1 construct: hydrolysis of 1 mM N-suc-AAPF-pNA in the plasma membrane of six human atrial tissues; from tissue; host or cells: human left atrial appendage tissue, plasma membrane fraction
T1 sequence (P23946 22-247): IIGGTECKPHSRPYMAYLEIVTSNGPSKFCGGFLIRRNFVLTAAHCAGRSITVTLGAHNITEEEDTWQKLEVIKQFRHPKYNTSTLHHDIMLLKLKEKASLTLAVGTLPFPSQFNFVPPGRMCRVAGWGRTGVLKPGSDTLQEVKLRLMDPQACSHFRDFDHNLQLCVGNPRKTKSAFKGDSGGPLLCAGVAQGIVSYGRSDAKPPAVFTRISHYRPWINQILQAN
Description: Chymase activity was also monitored by evaluating the hydrolysis of 1 mM N-suc-AAPF-pNA in the plasma membrane of six human atrial tissues. Briefly, all assays were performed in a total reaction volume of 200 µL in the 96-well microtiter plates containing plasma membranes with or without the presence of chymostatin (chymase inhibitor; 50 µM) as described above in 50 mM Tris buffer (pH 8.0) containing 1.5 M NaCl and 1% dimethylsulphoxide. The increase in absorbance at 410 nm was measured at 37°C for different time points (0–180 min) for the released p-nitroaniline. In addition, Ang II formation from ^125I-Ang-(1-12) was also investigated in the absence and in the presence of TEI-F00806 (100 µM; an orally active chymase-specific inhibitor provided by Teijin Pharma, Tokyo, Japan). Briefly, plasma membranes isolated from human atrial tissue (50 µg per reaction mixture) and ^125I-Ang-(1-12) were incubated in the presence or absence of TEI-F00806 (as described above for chymostatin) for 37°C for 60 min. At the end of incubation, samples were analyzed by HPLC for Ang II formation from ^125I-Ang-(1-12).

[2] = tested on: Ang I induced carotid artery vasoconstriction; settings: administration of chymostatin in enalapril-treated SHR rats; ref Becari et al. [30]; cited from earlier work
Description: A critical role for chymase in accounting for the processing of Ang-(1-12) is reinforced through the corresponding consistency of the chymase activity measured in each of the human samples. Since the atrial tissue employed in these studies was obtained from subjects undergoing cardiac surgery for the treatment of heart rhythm disorders (Table 2), we cannot exclude the possibility that the relatively high chymase activity reflects increased expression of this enzyme in this condition. Although an increase in cardiac chymase activity has been reported in both clinical and experimental forms of h ...

[3] = plasma membrane (50 µg) isolated from human atrial appendage, Minus Lisinopril group; settings: 37°C, up to 60 min
[4] = plasma membrane (50 µg) isolated from human atrial appendage, All RAS inhibitors group; settings: 37°C, up to 60 min
[5] = plasma membrane (50 µg) isolated from human atrial appendage, Minus Chymostatin group; settings: 37°C, up to 60 min
[6] = plasma membrane (50 µg) isolated from human atrial appendage, No RAS inhibitors group; settings: 37°C, up to 60 min
[7] = plasma membrane of six human atrial tissues in 50 mM Tris buffer (pH 8.0) containing 1.5 M NaCl and 1% dimethylsulphoxide; settings: 37°C, up to 180 min
human leukocyte elastase = settings: cited from earlier work
[8] = plasma membrane of six human atrial tissues in 50 mM Tris buffer (pH 8.0) containing 1.5 M NaCl and 1% dimethylsulphoxide, with chymostatin; settings: 37°C, up to 180 min
[9] = target: protein A purified polyclonal antibody directed to the COOH-terminus of human Ang-(1-12); assay: Binding affinity and cross-reactivity of protein A purified polyclonal Ang-(1-12) antibody (IgG); settings: protein A purified polyclonal antibody (IgG) to human Ang-(1-12); cross-reactivity
Description: Left atrial tissues from human cardiac patient were fixed in 4% paraformaldehyde for 24 h and then transferred into 70% ethanol. After dehydration, the tissues were embedded in paraffin and each section was cut in 5-µm thick sections. Immunohistochemistry was performed using well characterized protein A purified polyclonal antibody directed to the COOH-terminus of full length of human Ang-(1-12) sequence [Asp^1-Arg^2-Val^3-Tyr^4-Ile^5-His^6-Pro^7-Phe^8-His^9-Leu^10-Val^11-Ile^12] (AnaSpec, San Jose, CA). The binding affinity and cross-reactivity of protein A purified antibody (IgG) was checked for human Ang-(1-12) and small Ang peptides [Ang I, Ang II and Ang-(1-7)]. […] The antibody was independently used to detect immunoreactive Ang-(1-12) in human atrial tissue using the avidin-biotin horseradish peroxidase techniques as previously reported by our laboratory, [11]. Briefly, slides were deparaffinized in xylene (15 min), subsequently dipped in ethanol (100%, 95% and 75%, respectively) and washed in double distilled water. The clear slides were incubated in 3% hydrogen peroxide to block the endogenous peroxidase. […]

Compound: CC[C@H](C)[C@H](NC(=O)[C@@H](NC(=O)[C@H](CC(C)C)NC(=O)[C@H](Cc1c[nH]cn1)NC(=O)[C@H](Cc1ccccc1)NC(=O)[C@@H]1CCCN1C(=O)[C@H](Cc1c[nH]cn1)NC(=O)[C@@H](NC(=O)[C@H](Cc1ccc(O)cc1)NC(=O)[C@@H](NC(=O)[C@H](CCCNC(=N)N)NC(=O)[C@@H](N)CC(=O)O)C(C)C)[C@@H](C)CC)C(C)C)C(=O)O [Ang-(1-12), angiotensin-(1-12)] (H-DRVYIHPFHLVI-OH)
- Percent of ^125I-Ang-(1-12) parent control remained unmetabolized ([1]; All RAS inhibitors (plus lisinopril, SCH39370, MLN-4760, chymostatin; 50 µM each)): 98±7%
- Percent of ^125I-Ang-(1-12) parent control remained unmetabolized ([1]; Minus chymostatin (all inhibitors except chymase inhibitor; 50 µM each)): 31±13 ^a %
- Percent of ^125I-Ang-(1-12) parent control remained unmetabolized ([1]; Minus lisinopril (all inhibitors except ACE inhibitor; 50 µM each)): 98±5%
- Percent of ^125I-Ang-(1-12) parent control remained unmetabolized ([1]; NO RAS inhibitors (only amastatin, bestatin, benzyl succinate, PCMB; 50 µM each)): 22±10 ^a %

Compound: CC(C)C[C@H](NC(=O)[C@@H](NC(=O)N[C@@H](Cc1ccccc1)C(=O)O)[C@@H]1CCN=C(N)N1)C(=O)N[C@H](C=O)Cc1ccccc1 [chymostatin, Chymostatin]
- hydrolysis of N-suc-AAPF-pNA by human plasma membrane in the presence of inhibitor (chymase): completely blocked
- inhibition of Ang I induced carotid artery vasoconstriction [2]: 80%

Compound: H-Asp^1-Arg^2-Val^3-Tyr^4-Ile^5-His^6-Pro^7-Phe^8-His^9-Leu^10-Val^11-Ile^12-OH
- fragment found [3]: Ang II, minor
- fragment found [4]: Ang I, minor; also recorded: Ang II, minor
- cleaved bond [5]: Phe8-His9, major
- fragment found [5]: Ang I, minor
- cleaved bond [6]: Phe8-His9, major
- fragment found [6]: Ang I, minor

Compound: N-Succinyl-Ala-Ala-Pro-Phe-p-nitroanilide
- fragment found [7]: p-nitroaniline
- not cleaved (human leukocyte elastase): not hydrolyzed by human leukocyte elastase
- not cleaved [8]: hydrolysis completely blocked in the presence of chymostatin

Compound: angiotensin II (DRVYIHPF; Angiotensin-2; UniProt P01019 25-32, looked up) [Ang II, angiotensin peptide, main metabolic product of ^125I-Ang-(1-12)]
- EC50 [9]: 0.28 ± 0.02 nM

Compound: angiotensin-(1-7) [Ang-(1-7)]
- binding affinity of the antibody (EC50) [9]: below detection
